Source: US20260240762A1, “COMPOUND AND FORMULATION FOR SYSTEMIC THERAPY BY ORAL TRANSMUCOSAL ADMINISTRATION” (CUROVIR AB, priority 2023, published 2026)

Legend:
Type in all cases: biochemical
PI4KB = PI4KB (Homo sapiens, UniProt Q9UBF8); test: PI4 kinase inhibition, ADP-Glo Kinase assay; conditions: 60 min, 10 μM ATP
Description: (§1) Inhibition of PI4 kinases was performed with the ADP-Glo™ Kinase assay which measures the ADP formed from a kinase reaction, where ADP is converted into ATP and then converted into light by Ultra-Glo™ Luciferase. Reactions were carried out for 60 min at 10 μM ATP. The luminescent signal produced in reaction is proportional to the kinase activity.

PI4K2A = PI4K2A (Homo sapiens, UniProt Q9BTU6); test: PI4 kinase inhibition, ADP-Glo Kinase assay; conditions: 60 min, 10 μM ATP, not tested at concentration higher than 10 μM
Chain of PI4K2A (Q9BTU6 whole entry, species assumed): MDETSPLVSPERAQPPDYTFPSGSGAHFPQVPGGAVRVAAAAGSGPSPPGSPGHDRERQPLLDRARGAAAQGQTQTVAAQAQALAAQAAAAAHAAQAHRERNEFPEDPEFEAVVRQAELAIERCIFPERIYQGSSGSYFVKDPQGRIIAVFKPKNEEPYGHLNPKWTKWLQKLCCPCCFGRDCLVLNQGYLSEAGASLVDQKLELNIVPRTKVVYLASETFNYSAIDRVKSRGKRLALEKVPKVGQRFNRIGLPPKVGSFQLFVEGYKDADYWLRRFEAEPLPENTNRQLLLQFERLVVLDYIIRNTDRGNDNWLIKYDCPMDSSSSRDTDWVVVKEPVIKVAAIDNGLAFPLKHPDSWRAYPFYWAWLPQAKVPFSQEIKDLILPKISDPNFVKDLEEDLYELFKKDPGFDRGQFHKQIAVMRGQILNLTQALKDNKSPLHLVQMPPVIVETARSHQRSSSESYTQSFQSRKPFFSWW
Description: as §1

PI4KA = PI4KA (Homo sapiens, UniProt P42356); test: PI4 kinase inhibition, ADP-Glo Kinase assay; conditions: 60 min, 10 μM ATP
Chain of PI4KA (P42356 whole entry, species assumed): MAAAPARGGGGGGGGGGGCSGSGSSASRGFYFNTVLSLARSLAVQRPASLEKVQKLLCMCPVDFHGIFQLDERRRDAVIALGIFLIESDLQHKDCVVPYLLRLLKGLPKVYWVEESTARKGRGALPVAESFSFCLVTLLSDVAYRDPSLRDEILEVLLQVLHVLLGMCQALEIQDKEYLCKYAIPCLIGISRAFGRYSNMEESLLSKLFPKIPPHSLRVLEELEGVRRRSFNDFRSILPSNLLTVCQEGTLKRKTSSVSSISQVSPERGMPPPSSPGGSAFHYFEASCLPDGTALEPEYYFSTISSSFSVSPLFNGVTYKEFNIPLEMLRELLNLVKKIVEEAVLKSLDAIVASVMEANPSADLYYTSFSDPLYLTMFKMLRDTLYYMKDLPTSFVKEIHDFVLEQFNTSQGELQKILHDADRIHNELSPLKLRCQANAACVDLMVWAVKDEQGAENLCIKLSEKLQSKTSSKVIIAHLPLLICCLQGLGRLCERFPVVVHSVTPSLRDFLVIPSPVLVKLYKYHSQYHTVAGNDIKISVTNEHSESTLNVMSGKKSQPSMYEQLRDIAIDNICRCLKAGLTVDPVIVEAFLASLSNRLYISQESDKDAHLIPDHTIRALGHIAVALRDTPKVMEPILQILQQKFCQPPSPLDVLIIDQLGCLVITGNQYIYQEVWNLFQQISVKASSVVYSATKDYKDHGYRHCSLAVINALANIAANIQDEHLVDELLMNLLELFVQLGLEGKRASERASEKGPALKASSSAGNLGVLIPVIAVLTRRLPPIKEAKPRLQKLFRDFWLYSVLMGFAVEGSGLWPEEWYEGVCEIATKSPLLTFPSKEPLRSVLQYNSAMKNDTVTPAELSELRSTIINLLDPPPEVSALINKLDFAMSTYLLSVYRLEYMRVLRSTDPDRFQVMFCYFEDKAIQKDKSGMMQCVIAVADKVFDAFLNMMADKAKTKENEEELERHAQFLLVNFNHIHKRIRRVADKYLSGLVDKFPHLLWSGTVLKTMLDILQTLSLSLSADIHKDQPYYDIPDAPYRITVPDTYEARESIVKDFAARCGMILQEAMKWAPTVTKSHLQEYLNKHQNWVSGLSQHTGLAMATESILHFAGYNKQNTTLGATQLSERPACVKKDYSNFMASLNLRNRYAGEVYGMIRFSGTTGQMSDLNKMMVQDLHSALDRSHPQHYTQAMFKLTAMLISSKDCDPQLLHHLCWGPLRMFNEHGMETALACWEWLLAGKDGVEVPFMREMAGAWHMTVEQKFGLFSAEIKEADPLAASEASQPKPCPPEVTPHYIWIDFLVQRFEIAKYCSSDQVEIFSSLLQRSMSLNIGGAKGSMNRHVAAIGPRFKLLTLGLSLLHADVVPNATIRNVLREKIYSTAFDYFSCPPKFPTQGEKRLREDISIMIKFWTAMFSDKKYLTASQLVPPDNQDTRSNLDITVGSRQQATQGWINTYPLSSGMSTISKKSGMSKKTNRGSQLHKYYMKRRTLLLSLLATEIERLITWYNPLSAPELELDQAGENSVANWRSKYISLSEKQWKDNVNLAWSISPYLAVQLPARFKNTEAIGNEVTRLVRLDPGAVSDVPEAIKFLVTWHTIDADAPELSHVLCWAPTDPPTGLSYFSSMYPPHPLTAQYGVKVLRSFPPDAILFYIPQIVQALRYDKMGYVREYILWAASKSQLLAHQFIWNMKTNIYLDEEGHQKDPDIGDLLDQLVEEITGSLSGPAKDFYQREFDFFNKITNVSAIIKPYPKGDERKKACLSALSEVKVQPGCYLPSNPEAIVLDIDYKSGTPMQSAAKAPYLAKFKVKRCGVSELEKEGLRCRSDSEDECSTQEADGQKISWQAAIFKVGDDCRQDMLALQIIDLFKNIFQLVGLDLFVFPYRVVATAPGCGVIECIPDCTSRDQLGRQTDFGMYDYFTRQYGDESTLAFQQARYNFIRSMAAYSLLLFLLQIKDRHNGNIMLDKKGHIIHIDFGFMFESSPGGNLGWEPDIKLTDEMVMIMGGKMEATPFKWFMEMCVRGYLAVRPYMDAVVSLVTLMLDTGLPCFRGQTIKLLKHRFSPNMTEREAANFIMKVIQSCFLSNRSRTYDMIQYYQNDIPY
Description: as §1

PI4K2B = PI4K2B (Homo sapiens, UniProt Q8TCG2); test: PI4 kinase inhibition, ADP-Glo Kinase assay; conditions: 60 min, 10 μM ATP, not tested at concentration higher than 10 μM
Chain of PI4K2B (Q8TCG2 whole entry, species assumed): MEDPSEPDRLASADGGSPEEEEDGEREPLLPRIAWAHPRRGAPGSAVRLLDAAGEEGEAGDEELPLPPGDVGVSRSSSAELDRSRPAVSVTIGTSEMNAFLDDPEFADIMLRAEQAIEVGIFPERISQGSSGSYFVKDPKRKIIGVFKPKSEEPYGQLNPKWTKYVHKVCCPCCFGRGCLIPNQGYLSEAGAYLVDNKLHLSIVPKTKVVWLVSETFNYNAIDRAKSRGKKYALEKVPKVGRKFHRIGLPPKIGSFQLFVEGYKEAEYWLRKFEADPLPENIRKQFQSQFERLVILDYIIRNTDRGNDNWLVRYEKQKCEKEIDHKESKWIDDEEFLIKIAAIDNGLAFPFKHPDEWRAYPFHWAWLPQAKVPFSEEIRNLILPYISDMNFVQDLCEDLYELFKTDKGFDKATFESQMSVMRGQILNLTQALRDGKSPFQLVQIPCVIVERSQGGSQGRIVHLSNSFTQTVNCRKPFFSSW
Description: as §1

PI3K (p120g) = PI3K (p120g) (Homo sapiens, UniProt P48736); test: PI3 kinase inhibition, HTRF assay; conditions: not tested at concentration higher than 1 μM
Chain of PI3K (p120g) (P48736 whole entry): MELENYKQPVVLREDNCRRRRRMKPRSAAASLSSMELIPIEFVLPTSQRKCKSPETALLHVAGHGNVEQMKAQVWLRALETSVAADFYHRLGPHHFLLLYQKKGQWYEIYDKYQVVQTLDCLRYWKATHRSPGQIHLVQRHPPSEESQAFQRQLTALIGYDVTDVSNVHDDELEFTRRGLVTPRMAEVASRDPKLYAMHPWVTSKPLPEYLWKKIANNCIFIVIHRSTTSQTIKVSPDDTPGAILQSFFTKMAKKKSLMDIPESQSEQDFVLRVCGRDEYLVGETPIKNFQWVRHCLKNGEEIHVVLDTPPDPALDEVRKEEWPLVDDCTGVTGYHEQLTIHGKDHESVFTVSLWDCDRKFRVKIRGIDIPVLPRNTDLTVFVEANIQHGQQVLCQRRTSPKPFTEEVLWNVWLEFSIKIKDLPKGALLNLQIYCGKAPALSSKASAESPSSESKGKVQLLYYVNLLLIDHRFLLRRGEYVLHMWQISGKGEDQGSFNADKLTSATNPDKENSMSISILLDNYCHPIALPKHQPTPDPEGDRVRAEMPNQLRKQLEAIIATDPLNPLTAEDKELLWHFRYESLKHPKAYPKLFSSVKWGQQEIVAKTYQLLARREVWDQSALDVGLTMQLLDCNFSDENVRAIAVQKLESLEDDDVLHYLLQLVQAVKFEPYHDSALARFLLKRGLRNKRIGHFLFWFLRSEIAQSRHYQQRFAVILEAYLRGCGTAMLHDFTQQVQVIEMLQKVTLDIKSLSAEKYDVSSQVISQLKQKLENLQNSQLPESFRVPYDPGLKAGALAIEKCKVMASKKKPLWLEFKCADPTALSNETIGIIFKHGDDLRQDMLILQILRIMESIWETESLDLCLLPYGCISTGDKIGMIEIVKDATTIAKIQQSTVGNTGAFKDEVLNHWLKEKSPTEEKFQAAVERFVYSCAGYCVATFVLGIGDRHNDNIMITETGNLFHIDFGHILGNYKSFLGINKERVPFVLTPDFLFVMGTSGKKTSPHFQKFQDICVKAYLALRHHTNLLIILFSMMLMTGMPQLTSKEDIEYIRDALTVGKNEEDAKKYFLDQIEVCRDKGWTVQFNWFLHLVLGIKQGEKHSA
Text: (§2) Inhibition of PI3 kinases was studied using the HTRF (homogeneous time-resolved fluorescence) assay which is a universal method for identifying and characterizing the phosphotransferase activity induced by any ATP/ADP dependent target. The formation of ADP was detected by a specific monoclonal antibody labeled with Eu^3+ cryptate; the amount of ADP formed directly correlates with the amount of phosphorylated substrate in kinase assays.

PI3KB (p110b/p85a) = PI3KB (p110b/p85a) (Homo sapiens, UniProt P42338); test: PI3 kinase inhibition, HTRF assay
Text: as §2

PI3KA (p110a/p85a) = PI3KA (p110a/p85a) (Homo sapiens, UniProt P42336); test: PI3 kinase inhibition, HTRF assay
Text: as §2

Chain of PI4KB (Q9UBF8 whole entry, species assumed): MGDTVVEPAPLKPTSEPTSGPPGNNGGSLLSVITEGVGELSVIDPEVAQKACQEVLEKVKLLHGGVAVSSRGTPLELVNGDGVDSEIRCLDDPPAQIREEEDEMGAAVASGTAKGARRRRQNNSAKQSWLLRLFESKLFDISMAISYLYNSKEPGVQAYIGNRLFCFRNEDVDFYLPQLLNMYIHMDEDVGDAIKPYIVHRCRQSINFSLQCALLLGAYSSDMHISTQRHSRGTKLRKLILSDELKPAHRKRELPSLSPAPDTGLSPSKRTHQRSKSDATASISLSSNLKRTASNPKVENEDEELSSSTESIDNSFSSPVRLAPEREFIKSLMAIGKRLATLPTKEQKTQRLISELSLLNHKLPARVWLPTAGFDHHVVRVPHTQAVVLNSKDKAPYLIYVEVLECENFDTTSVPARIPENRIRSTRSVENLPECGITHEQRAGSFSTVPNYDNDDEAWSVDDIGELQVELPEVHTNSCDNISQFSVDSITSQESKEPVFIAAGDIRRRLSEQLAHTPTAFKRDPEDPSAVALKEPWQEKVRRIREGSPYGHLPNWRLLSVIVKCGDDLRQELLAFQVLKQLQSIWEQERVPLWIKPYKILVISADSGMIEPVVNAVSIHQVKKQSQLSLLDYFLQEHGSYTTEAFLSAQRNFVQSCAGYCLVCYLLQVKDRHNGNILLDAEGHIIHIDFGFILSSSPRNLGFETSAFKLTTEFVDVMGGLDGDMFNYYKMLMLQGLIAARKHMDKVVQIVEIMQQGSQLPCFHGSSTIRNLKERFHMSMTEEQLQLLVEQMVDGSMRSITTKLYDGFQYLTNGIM

IC50 (PI4KB): 0.0006 µM | IC50 (PI4K2A): > 10 µM | IC50 (PI4KA): 1.1 µM | IC50 (PI4K2B): > 10 µM | IC50 (PI3K (p120g)): > 1 µM | IC50 (PI3KB (p110b/p85a)): 5.4 µM | IC50 (PI3KA (p110a/p85a)): 3.4 µM
Compound: Cc1cc(CNc2cc(C)nc3c(-c4ccc5c(c4)c(C)nn5C)c(C)nn23)ccn1 [3-(1,3-dimethyl-1H-indazol-5-yl)-2,5-dimethyl-N-[(2-methylpyridin-4-yl)methyl]pyrazolo[1,5-a]pyrimidin-7-amine]
